In article PMC3711119 (European journal of medicinal chemistry, 2013):

System: human neutrophils
Experiment: Ca2+ mobilization
Format: cell-based
Conditions: Neutrophil, read-out: Ca2+ flux Efficacy

SMILES | Emax [%]
COc1cccc(Cc2ccnn(CC(=O)Nc3ccc(Br)cc3)c2=O)c1 [Compound 6a, N-(4-Bromophenyl)-2-[5-(3-methoxybenzyl)-6-oxopyridazin-1(6H)-yl]acetamide] | 100
Cc1cc(N)c(=O)n(CC(=O)Nc2ccc(Br)cc2)n1 [Compound 27, N-(4-Bromophenyl)-2-[5-amino-3-methyl-6-oxopyridazin-1(6H)-yl]acetamide] | 100
